Reference: patent US20230085307A1, “PYRIDAZINONE COMPOUND AND HERBICIDE” (NISSAN CHEMICAL CORPORATION, priority 2019, published 2023)

Legend:
[1] = system: oval-leafed pondweed; experiment: Test Example 2: herbicidal activity, application during weed generation under submerged conditions (Table 17, symbol C); type: in vivo, oval-leafed pondweed (Monochoria vaginalis); details: AAH 320 g/ha; application during weed generation, submerged conditions
Outline: (§1)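 Mixed weed seedlings in alluvial soil under a 4 cm water layer, greenhouse-grown at 25–30° C. Compound given as a diluted emulsion into the floodwater at the 1–2 leaf stage; response graded after three weeks.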

[2] = system: blackgrass; experiment: Test Example 4: herbicidal effect by soil treatment (Table 19, symbol J); type: in vivo, blackgrass (Alopecurus myosuroides); details: amount of applied herbicide 320 g/ha
Outline: (§2)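 Soil-surface application: an emulsion agent diluted with water to the predetermined dose is sprayed uniformly over seeds lying under roughly 1.5 cm of sterilized diluvial soil. Boxes stay in a greenhouse at 25° C. to 30° C. Three weeks later, each species is graded on previously defined criteria.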

[3] = system: redroot pigweed; experiment: Test Example 4: herbicidal effect by soil treatment (Table 19, symbol N); type: in vivo, redroot pigweed (Amaranthus retroflexus); details: amount of applied herbicide 320 g/ha
Outline: as §2

[4] = system: Japanese bulrush; experiment: Test Example 1: herbicidal activity, application before weed generation under submerged conditions (Table 16, symbol B); type: in vivo, Japanese bulrush (Schoenoplectus juncoides); details: amount of applied herbicide 320 g/ha
Outline: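 Emulsion formulation, water-diluted to set dose, was put onto the flooded surface (4 cm depth, alluvial soil) the same day weeds were sown and 2.5-leaf rice transplanted. After 3 weeks at 25-30 °C under glass, each species was rated 0 (≤5% kill) to 5 (≥90% kill).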

[5] = system: Japanese bulrush; experiment: Test Example 2: herbicidal activity, application during weed generation under submerged conditions (Table 17, symbol B); type: in vivo, Japanese bulrush (Schoenoplectus juncoides); details: AAH 320 g/ha; application during weed generation, submerged conditions
Outline: as §1

[6] = system: barnyard grass; experiment: Test Example 5: herbicidal effect by foliage application, plastic box (Table 20, symbol H); type: in vivo, barnyard grass (Echinochloa crus-galli); details: foliage application, 320 g/ha, three weeks after application
Outline: (§3)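 Sow seeds spot-wise in sterilized diluvial soil; cover with ~1.5 cm soil. Grow 14 days in greenhouse, 25° C. to 30° C. Spray foliage with emulsion diluted to predetermined amount. Rate effect after 3 weeks.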

[7] = system: chickweed; experiment: Test Example 5: herbicidal effect by foliage application, plastic box (Table 20, symbol P); type: in vivo, common chickweed (Stellaria media); details: foliage application, 320 g/ha, three weeks after application
Outline: as §3

[8] = system: wild oat; experiment: Test Example 4: herbicidal effect by soil treatment (Table 19, symbol I); type: in vivo, wild oat (Avena fatua); details: amount of applied herbicide 320 g/ha
Outline: as §2

[9] = system: redroot pigweed; experiment: Test Example 5: herbicidal effect by foliage application, plastic box (Table 20, symbol N); type: in vivo, redroot pigweed (Amaranthus retroflexus); details: foliage application, 320 g/ha, three weeks after application
Outline: as §3

[10] = system: velvetleaf; experiment: Test Example 4: herbicidal effect by soil treatment (Table 19, symbol M); type: in vivo, velvetleaf (Abutilon theophrasti); details: amount of applied herbicide 320 g/ha
Outline: as §2

[11] = system: green foxtail; experiment: Test Example 4: herbicidal effect by soil treatment (Table 19, symbol G); type: in vivo, green foxtail (Setaria viridis); details: amount of applied herbicide 320 g/ha
Outline: as §2

[12] = system: blackgrass; experiment: Test Example 5: herbicidal effect by foliage application, plastic box (Table 20, symbol J); type: in vivo, blackgrass (Alopecurus myosuroides); details: foliage application, 320 g/ha, three weeks after application
Outline: as §3

[13] = system: southern crabgrass; experiment: Test Example 4: herbicidal effect by soil treatment (Table 19, symbol F); type: in vivo, southern crabgrass (Digitaria ciliaris); details: amount of applied herbicide 320 g/ha
Outline: as §2

[14] = system: wild oat; experiment: Test Example 5: herbicidal effect by foliage application, plastic box (Table 20, symbol I); type: in vivo, wild oat (Avena fatua); details: foliage application, 320 g/ha, three weeks after application
Outline: as §3

[15] = system: late watergrass; experiment: Test Example 2: herbicidal activity, application during weed generation under submerged conditions (Table 17, symbol A); type: in vivo, late watergrass (Echinochloa oryzicola); details: AAH 320 g/ha; application during weed generation, submerged conditions
Outline: as §1

[16] = system: rice flat sedge; experiment: Test Example 3: herbicidal effect by foliage application, Wagner pot (Table 18, symbol E); type: in vivo, rice flat sedge (Cyperus iria); details: 320 g/ha
Outline: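 Plants were sown in alluvial soil held under 0.1–0.5 cm standing water and grown 14 days in a greenhouse at 25–30 °C. An emulsifiable formulation, water-diluted to the set dose, was then sprayed onto the foliage, and effects were scored three weeks later using previously defined criteria.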

[17] = system: chickweed; experiment: Test Example 4: herbicidal effect by soil treatment (Table 19, symbol P); type: in vivo, common chickweed (Stellaria media); details: amount of applied herbicide 320 g/ha
Outline: as §2

Compound | herbicidal effect rating, C: oval-leafed pondweed [1] | J: blackgrass, herbicidal effect grade [2] | N: redroot pigweed, herbicidal effect grade [3] | Herbicidal effect, B: Japanese bulrush [4] | herbicidal effect rating, B: Japanese bulrush [5] | H: barnyard grass, herbicidal effect grade [6] | P: chickweed, herbicidal effect grade [7] | I: wild oat, herbicidal effect grade [8] | N: redroot pigweed, herbicidal effect grade [9] | M: velvetleaf, herbicidal effect grade [10] | G: green foxtail, herbicidal effect grade [11] | J: blackgrass, herbicidal effect grade [12] | F: southern crabgrass, herbicidal effect grade [13] | I: wild oat, herbicidal effect grade [14] | herbicidal effect rating, A: late watergrass [15] | herbicidal effect on rice flat sedge (E) [16] | P: chickweed, herbicidal effect grade [17] | other results
COc1ccccc1-c1sc2cc(OCC(F)F)ccc2c1-c1c(O)c(C)nn(C)c1=O [3-114] | 5 (Herbicidal rate of 90% or more (almost completely withered)) | 5 (Herbicidal rate of 90% or more (almost completely withered)) | 5 (Herbicidal rate of 90% or more (almost completely withered)) | 5 (Herbicidal rate of 90% or more (almost completely withered)) | 4 (Herbicidal rate of 70% or more and less than 90%) | 5 (Herbicidal rate of 90% or more (almost completely withered)) | 5 (Herbicidal rate of 90% or more (almost completely withered)) | 0 (Herbicidal rate of 5% or less (almost no effect)) | 5 (Herbicidal rate of 90% or more (almost completely withered)) | 4 (Herbicidal rate of 70% or more and less than 90%) | 5 (Herbicidal rate of 90% or more (almost completely withered)) | 5 (Herbicidal rate of 90% or more (almost completely withered)) | 4 (Herbicidal rate of 70% or more and less than 90%) | 5 (Herbicidal rate of 90% or more (almost completely withered)) | 3 (Herbicidal rate of 40% or more and less than 70%) | 5 (Herbicidal rate of 90% or more (almost completely withered)) | 5 (Herbicidal rate of 90% or more (almost completely withered)) | 
CCOc1ccccc1-c1sc2cc(OCCOC)ccc2c1-c1c(O)c(C)nn(C)c1=O [3-123] | 2 (Herbicidal rate of 20% or more and less than 40%) | 4 (Herbicidal rate of 70% or more and less than 90%) | 5 (Herbicidal rate of 90% or more (almost completely withered)) | 5 (Herbicidal rate of 90% or more (almost completely withered)) | 3 (Herbicidal rate of 40% or more and less than 70%) | 5 (Herbicidal rate of 90% or more (almost completely withered)) | 5 (Herbicidal rate of 90% or more (almost completely withered)) | 4 (Herbicidal rate of 70% or more and less than 90%) | 5 (Herbicidal rate of 90% or more (almost completely withered)) | 2 (Herbicidal rate of 20% or more and less than 40%) | 5 (Herbicidal rate of 90% or more (almost completely withered)) | 5 (Herbicidal rate of 90% or more (almost completely withered)) | 5 (Herbicidal rate of 90% or more (almost completely withered)) | 5 (Herbicidal rate of 90% or more (almost completely withered)) | 3 (Herbicidal rate of 40% or more and less than 70%) | 5 (Herbicidal rate of 90% or more (almost completely withered)) | 5 (Herbicidal rate of 90% or more (almost completely withered)) | 
COc1ccccc1-c1sc2cc(OCCSC)ccc2c1-c1c(O)c(C)nn(C)c1=O [3-125] | 3 (Herbicidal rate of 40% or more and less than 70%) | 5 (Herbicidal rate of 90% or more (almost completely withered)) | 5 (Herbicidal rate of 90% or more (almost completely withered)) | 3 (Herbicidal rate of 40% or more and less than 70%) | 3 (Herbicidal rate of 40% or more and less than 70%) | 3 (Herbicidal rate of 40% or more and less than 70%) | 5 (Herbicidal rate of 90% or more (almost completely withered)) | 0 (Herbicidal rate of 5% or less (almost no effect)) | 5 (Herbicidal rate of 90% or more (almost completely withered)) | 4 (Herbicidal rate of 70% or more and less than 90%) | 2 (Herbicidal rate of 20% or more and less than 40%) | 5 (Herbicidal rate of 90% or more (almost completely withered)) | 3 (Herbicidal rate of 40% or more and less than 70%) | 5 (Herbicidal rate of 90% or more (almost completely withered)) | 0 (Herbicidal rate of 5% or less (almost no effect)) | 5 (Herbicidal rate of 90% or more (almost completely withered)) | 5 (Herbicidal rate of 90% or more (almost completely withered)) | 
COc1ccccc1-c1sc2cc(OCC3CCCO3)ccc2c1-c1c(O)c(C)nn(C)c1=O (centres unmarked) [3-133] | 1 (Herbicidal rate of 5% or more and less than 20%) |  |  | 3 (Herbicidal rate of 40% or more and less than 70%) | 3 (Herbicidal rate of 40% or more and less than 70%) | 3 (Herbicidal rate of 40% or more and less than 70%) | 5 (Herbicidal rate of 90% or more (almost completely withered)) |  | 5 (Herbicidal rate of 90% or more (almost completely withered)) |  |  | 5 (Herbicidal rate of 90% or more (almost completely withered)) |  | 4 (Herbicidal rate of 70% or more and less than 90%) | 2 (Herbicidal rate of 20% or more and less than 40%) | 5 (Herbicidal rate of 90% or more (almost completely withered)) |  | Herbicidal effect by soil treatment, J: blackgrass [2]: 3 (Herbicidal rate of 40% or more and less than 70%); Herbicidal effect by soil treatment, N: redroot pigweed [3]: 5 (Herbicidal rate of 90% or more (almost completely withered)); Herbicidal effect by soil treatment, I: wild oat [8]: 1 (Herbicidal rate of 5% or more and less than 20%); Herbicidal effect by soil treatment, M: velvetleaf [10]: 1 (Herbicidal rate of 5% or more and less than 20%); Herbicidal effect by soil treatment, G: green foxtail [11]: 5 (Herbicidal rate of 90% or more (almost completely withered)); Herbicidal effect by soil treatment, F: southern crabgrass [13]: 2 (Herbicidal rate of 20% or more and less than 40%); Herbicidal effect by soil treatment, P: chickweed [17]: 4 (Herbicidal rate of 70% or more and less than 90%)
